According to the NIST ThermoML archive (doi:10.1016/j.jct.2011.05.030):

Assays:
[1] = Crystal; for vapor or sublimation pressure: Calculated from knudsen effusion weight loss; for Normal melting temperature: DTA
[2] = Molar enthalpy of transition or fusion; conditions: Crystal; DSC

c1ccc2c(c1)-c1cccc3c1c-2cc1ccccc13 [benz[e]acephenanthrylene]
[1]
Conditions	vapor or sublimation pressure [kPa]
364.1 K	4.7e-06
369.3 K	8.12e-06
374.2 K	1.46e-05
377.2 K	1.9e-05
379.2 K	2.41e-05
382.2 K	3.21e-05
384.2 K	3.95e-05
387.2 K	5.4e-05
389.1 K	6.22e-05
392.1 K	8.51e-05
394.2 K	0.000101
397.1 K	0.000131
399.1 K	0.000159
404.1 K	0.00023
409 K	0.000356
414.1 K	0.000533

Conditions	Molar enthalpy of transition or fusion [kcal/mol]	Normal melting temperature [°C]
[1]	–	168.00
[2]	4.37	–

c1cc2ccc3ccc4ccc5cccc6c(c1)c2c3c4c56 [benzo[ghi]perylene]
[1]
Conditions	vapor or sublimation pressure [kPa]
399.1 K	4.16e-06
404 K	7e-06
409 K	1.15e-05
414.4 K	1.79e-05
419 K	2.83e-05
424 K	4.36e-05
429 K	6.54e-05
434.1 K	0.000104
439 K	0.000138
441 K	0.000207
449.1 K	0.000303
454.1 K	0.000432

Conditions	Molar enthalpy of transition or fusion [kcal/mol]	Normal melting temperature [°C]
[1]	–	272.50
[2]	3.9	–

c1ccc2cc3c(cc2c1)-c1cccc2cccc-3c12 [benzo[k]fluoranthene]
[1]
Conditions	vapor or sublimation pressure [kPa]
384.2 K	1.63e-05
389.2 K	2.42e-05
394.1 K	3.62e-05
399.1 K	5.62e-05
404 K	8.86e-05
409 K	0.000136
411 K	0.000157
419 K	0.000383
424 K	0.000557

Conditions	Molar enthalpy of transition or fusion [kcal/mol]	Normal melting temperature [°C]
[1]	–	217.00
[2]	6.33	–

c1ccc2c(c1)ccc1cc3c(ccc4ccccc43)cc12 [dibenz[a,h]anthracene]
[1]
Conditions	vapor or sublimation pressure [kPa]
399.2 K	5.11e-06
404 K	5.53e-06
409.1 K	9.22e-06
414 K	1.39e-05
419.1 K	3.95e-05
424.2 K	5.45e-05
429.2 K	8.89e-05
434.2 K	0.000112
439.1 K	0.000174
444.1 K	0.00028
449.1 K	0.000369

Conditions	Molar enthalpy of transition or fusion [kcal/mol]	Normal melting temperature [°C]
[1]	–	269.50
[2]	5.86	–

c1ccc2c(c1)-c1ccc3ccc4cccc5cc-2c1c3c45 [indeno[1,2,3-cd]pyrene]
[1]
Conditions	vapor or sublimation pressure [kPa]
384.1 K	5.38e-06
389.1 K	7.96e-06
394.2 K	1.3e-05
399.2 K	2.19e-05
404.1 K	3.28e-05
409.1 K	5.33e-05
414.1 K	8.53e-05
419.1 K	0.000133
424.1 K	0.000201

Conditions	Molar enthalpy of transition or fusion [kcal/mol]	Normal melting temperature [°C]
[1]	–	162.00
[2]	5.47	–
